In US9963462B2 (priority 2015, dated 2018):
pIC50: −log10 of the molar value. Like-named read-outs stand apart in the source and are kept apart here.

Experiments:
[1] = target: SNAP-hSPR (sepiapterin reductase, SPR) (Homo sapiens, UniProt P35270); assay: biochemical; format: binding; conditions: terbium labelled SNAP-hSPR / SSZ labelled SNAP-EGFP; read-out: hTR-FRET IC50
[2] = tested on: BH4 levels in SK-N-BE (2) cells; assay: SKN-N-BE (2) cellular assay, BH4 levels by LC-MS; format: cell-based
Method: SKN-N-BE(2) Cellular Assay: SK-N-BE (2) cells were seeded in sterile, 96-well plates and incubated for 12-24 hours at 37° C. with 5% CO2 supply. Media was removed and fresh DMEM/F-12 media (containing Glutamine & Pen/Strep but no FBS) was added. Compounds (at different concentrations) were added to different wells. The plates were then incubated for 6-48 hours at 37° C. with 5% CO2 supply. Plates were then centrifuged and the supernatant was removed. The plates were then optionally washed once with PBS. They were then sealed and stored at −80° C. or immediately used. The cells were lysed and the level of BH4 was assessed by LC-MS.
Compounds were assayed for SPR inhibitory activity using a SKN-N-BE (2) cellular assay according to the following procedure. SK-N-BE (2) cells were seeded in sterile, 96-well plates and incubated for 12-24 hours at 37° C. with 5% CO2 supply. Media was removed and fresh DMEM/F-12 media (containing Glutamine & Pen/Strep but no FBS) was added. Compounds (at different concentrations) were added to different wells. The plates were then incubated for 6-48 hours at 37° C. with 5% CO2 supply. Plates were then centrifuged and the supernatant was removed. The plates were then optionally washed once with PBS. They were then sealed and stored at −80° C. or immediately used in the next step. The cells were lysed and the levels of BH4 were assessed by LC-MS.

[3] = Homo sapiens, SKNBE2, read-out: SK-N-BE(2) IC50, SK-N-BE (2) cells, BH4 levels by LC-MS

SNAP-hSPR (sepiapterin reductase, SPR), sequence (P35270 whole entry): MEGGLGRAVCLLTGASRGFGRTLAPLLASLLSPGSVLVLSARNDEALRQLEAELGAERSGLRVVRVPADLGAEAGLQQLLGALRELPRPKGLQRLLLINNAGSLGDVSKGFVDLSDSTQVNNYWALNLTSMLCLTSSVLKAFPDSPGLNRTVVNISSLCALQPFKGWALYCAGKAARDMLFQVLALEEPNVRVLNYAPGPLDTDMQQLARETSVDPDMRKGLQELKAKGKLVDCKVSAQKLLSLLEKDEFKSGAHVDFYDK

Cc1cc(-n2ncc(C(=O)N3CCC(C(F)(F)F)CC3)c2C)[nH]c(=O)c1 [Q-0439, 4-methyl-6-{5-methyl-4-[4-(trifluoromethyl)piperidine-1-carbonyl]-1H-pyrazol-1-yl}-1,2-dihydropyridin-2-one]
pIC50 [1]: 9.00 | pIC50 [2, 3]: 7.02

Cc1c(C(=O)N2CC3[C@@H](C2)CN3C(=O)OC(C)(C)C)cnn1-c1nn2cccc2c(=O)[nH]1 (stereo partly shown) [Q-0806]
pIC50 [1]: 8.52 | pIC50 [2, 3]: 5.92

O=C(c1cnn(-c2nc3c(c(=O)[nH]2)CCC3)c1)N1CCC(C(F)(F)F)CC1 [Q-0526, 2-{4-[4-(trifluoromethyl)piperidine-1-carbonyl]-1H-pyrazol-1-yl}-3H,4H,5H,6H,7H-cyclopenta[d]pyrimidin-4-one]
pIC50 [1]: 8.52 | pIC50 [2, 3]: 7.55

Cc1cc(=O)[nH]c(-n2ncc(C(=O)N(C)C3CCc4ccccc43)c2C)n1 (stereo not shown) [Q-0374]
pIC50 [1]: 8.05 | pIC50 [2, 3]: 5.92

Cc1c(C(=O)N2CC3CC(=O)CC3C2)cnn1-c1nn2cccc2c(=O)[nH]1 (stereo not shown) [Q-0824]
pIC50 [1]: 8.30 | pIC50 [2, 3]: 5.74

Cc1c(C(=O)N2CCC3OCCCC3C2)cnn1-c1nc2ccsc2c(=O)[nH]1 (stereo not shown) [Q-0557]
pIC50 [1]: 8.10 | pIC50 [2, 3]: 6.22

CCC1(C#N)CCN(C(=O)c2cnn(-c3nc4sccc4c(=O)[nH]3)c2C)CC1 [Q-0563]
pIC50 [1]: 8.30 | pIC50 [2, 3]: 6.52

O=C(c1cnn(-c2nc3c(c(=O)[nH]2)CCC3)c1)N1CCN2CCC[C@@H]2C1 [Q-0743]
pIC50 [1]: 8.40 | pIC50 [2, 3]: 6.40

Cc1c(C(=O)N2CCC3(CC2)CC3)cnn1-c1nn2cccc2c(=O)[nH]1 [Q-0681]
pIC50 [1]: 9.00 | pIC50 [2, 3]: 6.70

Cc1c(C(=O)N2CC[C@@H](N(C)C(=O)OC(C)(C)C)C2)cnn1-c1nc2ccsc2c(=O)[nH]1 [Q-0549]
pIC50 [1]: 8.40 | pIC50 [2, 3]: 6.40

Cc1nc(-n2ncc(C(=O)N3CCc4ccccc4C3)c2C)[nH]c(=O)c1Cl [Q-0456]
pIC50 [1]: 8.10 | pIC50 [2, 3]: 6.30

Cc1c(C(=O)N2C[C@@H]3CN(C(=O)OC(C)(C)C)[C@@H]3C2)cnn1-c1nn2cccc2c(=O)[nH]1 [Q-0773]
pIC50 [1]: 8.22 | pIC50 [2, 3]: 5.77

Cc1c(C(=O)N(CC2COc3ccccc3O2)C(C)C)cnn1-c1nc2c(c(=O)[nH]1)CCC2 (stereo not shown) [Q-0500]
pIC50 [1]: 7.52 | pIC50 [2, 3]: 7.01

O=C(c1cnn(-c2nc3c(c(=O)[nH]2)CCC3)c1)N1CCC(c2nc3cc(F)ccc3s2)CC1 [Q-0707]
pIC50 [1]: 8.30 | pIC50 [2, 3]: 6.52

O=C(c1ccnc(-c2nc3ccsc3c(=O)[nH]2)c1)N1CCC(C(F)(F)F)CC1 [Q-0515]
pIC50 [1]: 7.40 | pIC50 [2, 3]: 5.28

Cc1c(C(=O)N2CCN(C)CC2)cnn1-c1nc2c(c(=O)[nH]1)CCC2 [Q-0722]
pIC50 [1]: 7.70 | pIC50 [2, 3]: 5.48

CCCN(C)C(=O)c1cnn(-c2nc(C)cc(=O)[nH]2)c1C [Q-0346]
pIC50 [1]: 8.10 | pIC50 [2, 3]: 5.28

Cc1cc(-n2cc(C(=O)N3CCC(C(F)(F)F)CC3)c(C)n2)[nH]c(=O)c1 [Q-0440, 4-methyl-6-{3-methyl-4-[4-(trifluoromethyL)piperidine-1-carbonyl]-1H-pyrazol-1-yl}-1,2-dihydropyridin-2-one]
pIC50 [1]: 8.05 | pIC50 [2, 3]: 5.85

Cc1c(C(=O)O)nnn1-c1nn2cccc2c(=O)[nH]1 [Q-0779]
pIC50 [1]: 7.70 | pIC50 [2, 3]: 5.00

COc1ccc2c(c1)CN(C(=O)c1cnn(-c3nc(C)cc(=O)[nH]3)c1C)CC2 [Q-0307]
pIC50 [1]: 8.05 | pIC50 [2, 3]: 5.38

Cc1c(C(=O)N2CCC(C(O)(C(F)(F)F)C(F)(F)F)CC2)cnn1-c1nc2c(c(=O)[nH]1)CCC2 [Q-0701]
pIC50 [1]: 8.70 | pIC50 ([2]; read-out: SK-N-BE(2) IC50, SK-N-BE (2) cells, BH4 levels by LC-MS): 7.09

Cc1c(C(=O)N(CCc2ccccc2)CC(O)C(F)(F)F)cnn1-c1nc2c(c(=O)[nH]1)CCC2 (stereo not shown) [Q-0502]
pIC50 [1]: 7.70 | pIC50 [2, 3]: 6.40

Cc1c(C(=O)N2CCC(c3ccccc3)CC2)cnn1-c1nc2ccsc2c(=O)[nH]1 [Q-0495]
pIC50 [1]: 8.30 | pIC50 [2, 3]: 7.29

Cc1c(C(=O)N2C[C@@H]3CCN(C(=O)OC(C)(C)C)C[C@@H]32)cnn1-c1nn2cccc2c(=O)[nH]1 [Q-0790]
pIC50 [1]: 8.15 | pIC50 [2, 3]: 5.85

CCOC(=O)c1cn(-c2nn3cccc3c(=O)[nH]2)nn1 [Q-0839]
pIC50 [1]: 8.10 | pIC50 [2, 3]: 5.82

Cc1c(C(=O)N2CCC(c3c[nH]c4ccccc34)CC2)cnn1-c1nn2cccc2c(=O)[nH]1 [Q-0585]
pIC50 [1]: 8.22 | pIC50 [2, 3]: 7.48

Cc1cc(=O)[nH]c(-n2ncc(C(=O)N3c4ccccc4C[C@@H]3C)c2C)n1 (single isomer, unassigned) [Q-0372]
pIC50 [1]: 8.30 | pIC50 [2, 3]: 6.52

Cc1cc(=O)[nH]c(-n2ncc(C(=O)N3CCc4ccccc4C3)c2Cc2ccccc2)n1 [Q-0358]
pIC50 [1]: 7.00 | pIC50 [2, 3]: 4.66

Cc1c(C(=O)N2CC3(CCN(C(=O)OC(C)(C)C)C3)C2)cnn1-c1nn2cccc2c(=O)[nH]1 [Q-0762]
pIC50 [1]: 8.70 | pIC50 [2, 3]: 6.70

O=C(O)c1ccnc(-c2nc3ccsc3c(=O)[nH]2)c1 [Q-0547]
pIC50 [1]: 5.64 | pIC50 [2, 3]: 5.00

Cc1c(C(=O)N2CCC(C#N)CC2)cnn1-c1nc2c(c(=O)[nH]1)CCC2 [Q-0464]
pIC50 [1]: 8.52 | pIC50 [2, 3]: 6.52

Cc1c(C(=O)N2CCC(C(F)(F)F)CC2)cnn1-c1nc2c(c(=O)[nH]1)CC2 [Q-0765]
pIC50 [1]: 8.30 | pIC50 [2, 3]: 6.52

Cc1cc(=O)[nH]c(-n2ncc(C(=O)N3c4ccccc4CC3C)c2C)n1 (stereo not shown) [Q-0303]
pIC50 [1]: 8.15 | pIC50 [2, 3]: 6.05

CC(C)(C#N)C1CCN(C(=O)c2cnn(-c3nc4c(c(=O)[nH]3)CCC4)c2)CC1 [Q-0710]
pIC50 [1]: 8.70 | pIC50 [2, 3]: 6.70

Cc1cc(=O)[nH]c(-n2nc(C)c(C(=O)N3CCc4ccccc4C3)c2C)n1 [Q-0375]
pIC50 [1]: 7.70 | pIC50 [2, 3]: 5.60

Cc1c(C(=O)N2CCC(NC(=O)OC(C)(C)C)(C(F)(F)F)C2)cnn1-c1nn2cccc2c(=O)[nH]1 (stereo not shown) [Q-0852]
pIC50 [1]: 8.70 | pIC50 [2, 3]: 6.10

O=C(c1cnn(-c2nn3cccc3c(=O)[nH]2)c1)N1CCC2(CC1)CC2 [Q-0708]
pIC50 [1]: 9.00 | pIC50 [2, 3]: 7.01

Cc1c(C(=O)N2C3CCC2CC(c2ccccc2)C3)cnn1-c1nc2c(c(=O)[nH]1)CCC2 (stereo not shown) [Q-0513]
pIC50 [1]: 8.00 | pIC50 [2, 3]: 7.33

O=C(c1cnn(-c2nn3cccc3c(=O)[nH]2)c1)N1CCC(CC(F)(F)F)CC1 [Q-0713]
pIC50 [1]: 9.00 | pIC50 [2, 3]: 6.70

Cc1cc(=O)[nH]c(-n2ncc(C(=O)NC3CCCC3)c2C(C)C)n1 [Q-0330]
pIC50 [1]: 7.70 | pIC50 [2, 3]: 5.21

Cc1c(C(=O)N2CCC(C(F)(F)F)CC2)nnn1-c1nn2cccc2c(=O)[nH]1 [Q-0832]
pIC50 [1]: 9.00 | pIC50 [2, 3]: 6.70

Cc1c(C(=O)N2[C@H](C)CCC[C@@H]2C)cnn1-c1nc2ccsc2c(=O)[nH]1 [Q-0417]
pIC50 [1]: 8.40 | pIC50 [2, 3]: 6.05

CCC1(C#N)CCN(C(=O)c2cnn(-c3nn4c(F)ccc4c(=O)[nH]3)c2C)CC1 [Q-0623]
pIC50 [1]: 9.00 | pIC50 [2, 3]: 7.11

Cc1cc(=O)[nH]c(-n2ncc(C(=O)N3CCN(c4ccccn4)CC3)c2Cc2ccccc2)n1 [Q-0369]
pIC50 [1]: 6.70 | pIC50 [2, 3]: 4.55

Cc1c(C(=O)N2CCC(C(C)(C)C#N)CC2)cnn1-c1nc2c(c(=O)[nH]1)CCC2 [Q-0469]
pIC50 [1]: 8.40 | pIC50 [2, 3]: 7.43

Cc1c(C(=O)N2CCC(C(F)(F)F)CC2)cnn1-c1nn2cc(F)cc2c(=O)[nH]1 [Q-0543]
pIC50 [1]: 8.52 | pIC50 [2, 3]: 6.40

CC(C#N)C1CCN(C(=O)c2cnn(-c3nc4c(c(=O)[nH]3)CCC4)c2C2CC2)CC1 (stereo not shown) [Q-0578]
pIC50 [1]: 8.10 | pIC50 [2, 3]: 6.15
